{"source": "patent US10450549B2", "about": "“Aryloxyphenoxypropionate tolerance in turfrgass species and use of AAD1 as a selectable marker” (Dow AgroSciences, LLC, priority 2004, dated 2019)", "key": {"[1]": {"test_system": "F1 progeny of ‘Crenshaw’ creeping bentgrass pDAB5042 events", "experiment": "AAD1 whole-plant selectable marker: F1 progeny of Crenshaw pDAB5042 events x elite lines, injury to 240 g ae/ha quizalofop-p-ethyl", "assay_type": "in vivo", "procedure": "The use of AAD1 as a selectable marker for quizalofop selection agent was tested with an “F1” generation of plants that were produced by crossing selected single copy pDAB5042 ‘Crenshaw’ events with non-transgenic elite lines (lines 3425-12, 3427-2, or 3431-1). ‘Crenshaw’ events were vernalized in a growth chamber; elite line crossing partners were field vernalized. Nearing the time of bloom, a non-transgenic plant at the same reproductive stage was moved into the growth chamber in close proximity of the pDAB5042 event. Panicles were secured together with a twist tie, and both panicles were bagged together and labeled. Alternatively, to increase the number of crosses, some panicles were excised and secured to an intact panicle and bagged. At seed harvest, individual seed heads were removed and packaged individually.\nSeed were sown on flats containing Metromix™, and germinated in a growth chamber. All emerged seedlings were transplanted into growth medium prepared by mixing Promix® and sand in a 2 to 1 ratio. The medium was contained in plastic pots with a surface area of 84.6 square centimeters (cm^2). Plants were maintained in a greenhouse until established. Leaf tissue from each seedling was harvested for molecular analysis, and tissues were probed for the presence of AAD1. After tissue harvest, the established plants were trimmed to simulate mowing.\nThe same two plants were the only plants testing positive for one copy of AAD1."}, "AAD2 (v1)": {"target": "AAD2 (v1) (Bradyrhizobium diazoefficiens, UniProt Q89UC4)", "experiment": "Colorimetric phenol assay of AAD2 (v1) E. coli extract / partially purified enzyme", "assay_type": "biochemical, Bradyrhizobium japonicum"}, "[2]": {"test_system": "AAD1 (v2)-transformed T1 Arabidopsis", "experiment": "T1 Arabidopsis response to postemergence herbicide, % visual injury 2 WAT: native AAD1 (v2) transformants", "assay_type": "in vivo, Arabidopsis thaliana", "settings": "for % Injury Ave / individuals with 20-40% injury / individuals with <20% injury / individuals with >40% injury: Native AAD1 (v2) gene, 2 WAT", "procedure": "Freshly harvested T1 seed (transformed with native [AAD1 (v2)] or plant optimized [AAD1 (v3)] gene) was allowed to dry for 7 days at room temperature. T1 seed was sown in 26.5×51-cm germination trays (T.O. Plastics Inc., Clearwater, Minn.), each receiving a 200 mg aliquots of stratified T1 seed (˜10,000 seed) that had previously been suspended in 40 ml of 0.1% agarose solution and stored at 4° C. for 2 days to complete dormancy requirements and ensure synchronous seed germination.\nSunshine Mix LP5 (Sun Gro Horticulture Inc., Bellevue, Wash.) was covered with fine vermiculite and subirrigated with Hoagland's solution until wet, then allowed to gravity drain. Each 40 ml aliquot of stratified seed was sown evenly onto the vermiculite with a pipette and covered with humidity domes (KORD Products, Bramalea, Ontario, Canada) for 4-5 days. Domes were removed 1 day prior to initial transformant selection using glufosinate postemergence spray (selecting for the co-transformed PAT gene).\nFive to six days after planting (DAP) and again 10 DAP, T1 plants (cotyledon and 2-4-1f stage, respectively) were sprayed with a 0.2% solution of Liberty herbicide (200 g ai/L glufosinate, Bayer Crop Sciences, Kansas City, Mo.) at a spray volume of 10 ml/tray (703 L/ha) using a DeVilbiss compressed air spray tip to deliver an effective rate of 280 g ai/ha glufosinate per application. Survivors (plants actively growing) were identified 5-7 days after the final spraying and transplanted individually into 3-inch pots prepared with potting media (Metro Mix 360). Transplanted plants were covered with humidity domes for 3-4 days and placed in a 22° C. growth chamber as before. Domes were subsequently removed and plants moved to the greenhouse (22+5° C., 50+30% RH, 14 h light:10 dark, minimum 500 μE/m^2s^1 natural+supplemental light) at least 1 day prior to testing for the ability of AAD1 (v3) (plant optimized gene) or AAD1 (v2) (native microbial gene) to provide phenoxy auxin herbicide resistance.\nRandom individual T1 plants selected for glufosinate resistance above were confirmed for expression of the PAT protein using a PAT ELISA kit (Part no. 7000045, Strategic Diagnostics, Inc., Newark, Del.) to non-destructively confirm fidelity of selection process (manufacturer's protocol). Plants were then randomly assigned to various rates of phenoxy herbicides (dichlorprop or 2,4-D). […] Elevated rates were applied in subsequent trials (50, 200, 800, or 3200 g ae/ha).\nAll auxin herbicide applications were made using the DeVilbiss sprayer as described above to apply 703 L/ha spray volume (0.4 ml solution/3-inch pot) or applied by track sprayer in a 187 L/ha spray volume. […] Dichlorprop used was technical grade (Sigma, St. Louis, Mo.) dissolved in DMSO and diluted in water (<1% DMSO final concentration). As herbicide rates increased beyond 800 g ae/ha, the pH of the spray solution became exceedingly acidic, burning the leaves of young, tender Arabidopsis plants and complicating evaluation of the primary effects of the herbicides. It became standard practice to apply these high rates of phenoxy herbicides in 200 mM Tris buffer (pH 9.0) to a final pH of ˜7-8.\nTable 16. […] Response is presented in terms of % visual injury 2 WAT. […] Since each T1 is an independent transformation event, one can expect significant variation of individual T1 responses within a given rate. An arithmetic mean and standard deviation is presented for each treatment. The range in individual response is also indicated in the last column for each rate and transformation. PAT/Cry1F-transformed Arabidopsis served as an auxin-sensitive transformed control. Wildtype Arabidopsis is untransformed."}, "[3]": {"test_system": "transformed-control line containing PAT and Cry1F", "experiment": "Foliar-applied auxinic herbicides on control (PAT/Cry1F, wildtype) Arabidopsis, % injury 14 DAT", "assay_type": "in vivo, Arabidopsis thaliana", "settings": "PatCry1f - Control", "outline": "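Homozygous T4 AAD1 (v3) Arabidopsis (line AAD1.01.315.076) and a PAT/Cry1F transformed control were grown in pots and track-sprayed foliarly at 187 L/ha with herbicides formulated in 200 mM Hepes pH 7.5. Injury was rated 14 days after treatment, with 3-4 replicates averaged over two experiments.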"}}, "note": "Several values for one entry are separate records, joined by “and”; a condition that tells them apart may be missing. Identical values can stand only once."}
{"molecule": "CCOC(=O)[C@@H](C)Oc1ccc(Oc2cnc3cc(Cl)ccc3n2)cc1", "note": "[quizalofop-p-ethyl]", "values": [{"measurement": "Visual Injury 39 DAA", "setting": "[1]; F1 progeny of 3431-1 × pDAB5042 Event 162", "value": 100, "unit": "%"}, {"measurement": "Visual Injury 39 DAA", "setting": "[1]; F1 progeny of NT6 × pDAB5042 Event 186", "value": 95, "unit": "%"}, {"measurement": "Visual Injury 39 DAA", "setting": "[1]; individual F1 progeny of 3427-2 × pDAB5042 Event 186", "value": "60% and 80% and 95% (4×) and 90% and 99% (3×) and 85% and 100% (2×)"}, {"measurement": "Visual Injury 39 DAA", "setting": "[1]; individual F1 progeny of 3431-1 × pDAB5042 Event 127", "value": "90% (4×) and 95% (4×) and 100% (6×) and 99%"}, {"measurement": "Visual Injury 39 DAA", "setting": "[1]; individual F1 progeny of 3431-1 × pDAB5042 Event 186", "value": "100% (6×) and 99% (10×) and 95% (8×) and 80% (2×) and 90%"}, {"measurement": "Visual Injury 39 DAA", "setting": "[1]; individual F1 progeny of pDAB5042 Event 127 × 3431-1", "value": "99% (3×) and 95%"}, {"measurement": "Visual Injury 39 DAA", "setting": "[1]; individual F1 progeny of pDAB5042 Event 144 × 3425-12", "value": "99% and 100%"}, {"measurement": "Visual Injury 39 DAA", "setting": "[1]; individual F1 progeny of pDAB5042 Event 186 × 3425-12 (asterisk: AAD1 positive)", "value": 0, "unit": "%"}, {"measurement": "Visual Injury 39 DAA", "setting": "[1]; individual F1 progeny of pDAB5042 Event 186 × 3431-1", "value": "99% (4×) and 100% (2×) and 90%"}, {"measurement": "Visual Injury 39 DAA", "setting": "[1]; individual progeny of NT6 × 3427-2", "value": "90% and 100% (2×)"}]}
{"molecule": "O=C(O)COc1ccc(Cl)cc1Cl", "note": "[2,4-D, 2,4-dichlorophenoxyacetic acid]", "values": [{"measurement": "Vmax (A510 units)", "setting": "AAD2 (v1); AAD2 (pDAB3202), MOPS pH 6.75", "value": 0.86, "unit": "A510 units"}, {"measurement": "apparent Vmax, AAD2 (v1)", "setting": "AAD2 (v1); partially purified enzyme", "value": 0.86, "unit": "A510 units"}, {"measurement": "T1 plants surviving uninjured (<20% visual injury)", "setting": "[2]; AAD1 (v2), 200 g ae/ha", "value": 56, "unit": "%"}, {"measurement": "% Injury Ave", "setting": "[2]; 50 g ae/ha", "value": 14.8, "unit": "%"}, {"measurement": "individuals with 20-40% injury", "setting": "[2]; 50 g ae/ha", "value": 16}, {"measurement": "individuals with <20% injury", "setting": "[2]; 50 g ae/ha", "value": 55}, {"measurement": "individuals with >40% injury", "setting": "[2]; 50 g ae/ha", "value": 9}, {"measurement": "% Injury Ave", "setting": "[2]; 200 g ae/ha", "value": "34% and 34.1%"}, {"measurement": "individuals with 20-40% injury", "setting": "[2]; 200 g ae/ha", "value": 11}, {"measurement": "individuals with <20% injury", "setting": "[2]; 200 g ae/ha", "value": 45}, {"measurement": "individuals with >40% injury", "setting": "[2]; 200 g ae/ha", "value": 24}, {"measurement": "% Injury Ave", "setting": "[2]; 800 g ae/ha", "value": 52.5, "unit": "%"}, {"measurement": "individuals with 20-40% injury", "setting": "[2]; 800 g ae/ha", "value": 32}, {"measurement": "individuals with <20% injury", "setting": "[2]; 800 g ae/ha", "value": 11}, {"measurement": "individuals with >40% injury", "setting": "[2]; 800 g ae/ha", "value": 37}]}
{"molecule": "Nc1c(Cl)c(F)nc(OCC(=O)O)c1Cl", "note": "[Fluroxypyr]", "values": [{"measurement": "Ave % Injury 14DAT", "setting": "[3]; 50 g ae/ha foliar", "value": 76, "unit": "%"}, {"measurement": "Ave % Injury 14DAT", "setting": "[3]; 200 g ae/ha foliar", "value": 85, "unit": "%"}, {"measurement": "Ave % Injury 14DAT", "setting": "[3]; 800 g ae/ha foliar", "value": 85, "unit": "%"}, {"measurement": "Ave % Injury 14DAT", "setting": "[3]; 3200 g ae/ha foliar", "value": 95, "unit": "%"}]}
